# Several values for one entry are separate records, joined by “and”; a condition that tells them apart may be missing. Equal values may be shown once.
# What was measured:
# [1] = system: SARS-CoV-2 VOC-202012/01 strain; assay type: cell-based
# [2] = cited from earlier work
SMILES,100% CPE inhibitory concentration (CPEIC100) [1],time to maximal effectiveness on the coronavirus ([1]; after starting treatment) [h],plasma half-life [2] [h],time of peak plasma concentrations [2] [h]
"O=c1nc[nH]c2c1ncn2[C@H]1CC[C@@H](CO)O1 [DDI, 9-[(2R,5S)-5-(hydroxymethyl)oxolan-2-yl]-3H-purin-6-one]",8.95 µM and 8.95 ± 0.52 µM,12 to 24,≤ 2,0.5 to 1.5
CCC(CC)COC(=O)[C@H](C)N[P@](=O)(OC[C@H]1O[C@@](C#N)(c2ccc3c(N)ncnn23)[C@H](O)[C@@H]1O)Oc1ccccc1 [remdesivir],25.17 µM and 25.17 ± 2.51 µM,–,–,–
N#C[C@@]1(c2ccc3c(N)ncnn23)O[C@H](CO)[C@@H](O)[C@H]1O [GS-441524],17.40 µM and 17.40 ± 1.83 µM,–,–,–

# Reference: publication PMC9244909 (ACS Omega, 2022)
